From patent US12173309B2, “Compounds for increasing genome editing efficiency” (Max-Planck-Gesellschaft zur Förderung der Wissenschaften …, priority 2017, dated 2024)

System: 409-B2 iCRISPR-Cas9n hiPSCs
Test: BFP insertion (871 nt ssODN) efficiency in AAVS1 iCRISPR locus, microscopy
Type: cell-based, human
Details: 7 days of BFP expression
From the text: FIG. 8: Impact of the CRISPY mix and its component NU7026 on BFP insertion (ssODN) efficacy in human induced pluripotent stem cells. The design of the mtagBFP2 (Subach et al. 2011) ssODN donor and the iCRISPR system is shown in (A). We inserted a 871 nt (including 50 nt homology arms) sequence coding for a 2A-self cleaving peptide in front of a Blue Fluorescent Protein (BFP), directly after the N-terminal nuclear localization signal sequence (NLS) of the Cas9n in the heterozygous AAVS1 iCRISPR locus (409-B2 iCRISPR-Cas9n hiPSCs). If the sequence is inserted, doxycycline will lead to expression of nucleus-imported BFP. […] Two images (50× magnification, white size bar 200 μm) from each of three technical replicates for the respective treatments were used to quantify the percentage of cells with BFP insertion using ImageJ (C).
409-B2 iCRISPR-Cas9n hiPSCs were nucleofected with gRNAs and the Blue Fluorescent Protein (BFP) single stranded oligo (FIG. 8A, 330 ng) in […] for either mock, NU7026, and CRISPY mix treatment. […] Images were blinded and BFP positive nuclei were counted using the Adobe Photoshop CS5 counting tool. Propidium iodide positive nuclei were quantified using ImageJ by dividing the area of nuclei (default threshold) with the mean area of a single nucleus.

O=c1cc(N2CCOCC2)oc2c1ccc1ccccc12 [NU7026]
nuclei positive for BFP: 6% | increase of nuclei positive for BFP (vs no-CRISPY control (3.7%)): 1.6 fold
